Experiments:
KMS.12.BM cells = test: KMS.12.BM cell viability assay (Cell Titer-GLO, ATP quantitation); format: cell-based; details: Homo sapiens, 72 h, 3 days, concentration required for 50% cell death, read-out: KMS cellular IC50
Procedure: KMS.12.BM cell line (human myeloma) was purchased from JCRB (Osaka, Japan) and maintained in RPMI with 10% FBS culture medium. To measure the cytotoxic activity of the compounds through ATP quantitation, the KMS.12.BM cells are plated in the RPMI culture medium at 5000 cells/well/per 100 μL into a 96-well polystyrene clear black tissue culture plate (Greiner-bio-one through VWR, NJ), in the presence or absence of a concentration range of test compounds. After 3 days, […] Cell Titer-GLO Luminescent (Promega, Madison, Wis.) cell culture agent is added to each well for 10 minutes at room temperature to stabilize the luminescent signal. This determines the number of viable cells in culture based on quantitation of the ATP present, which signals the presence of metabolically active cells. Luminescence is measured with the Top Count 384 (Packard Bioscience through Perkin Elmer, Boston, Mass.). Compound inhibition is determined relative to cells cultured with no drug and the IC50 is reported as the compound concentration required for 50% cell death. IC50 data for the Examples is presented in Table 9 as determined by Assay B1.

BRD4-BD2 = BRD4-BD2 (Homo sapiens (Human), UniProt O60885); test: BRD4 AlphaScreen assay, BRD4-BD2; format: binding; details: H4Ac4 peptide, 75 min, room temperature, read-out: BRD4 BD-2 enzyme IC50
Procedure: (§1) BRD4-BD1 and BRD4-BD2 assays were conducted in white 384-well polystyrene plate in a final volume of 20 μL for BD1 and 40 μL for BD2. Inhibitors were first serially diluted in DMSO and added to the plate wells before the addition of other reaction components. […] After plate sealing, the plate was incubated in the dark at room temperature for 75 min. before reading on a PHERAstar FS plate reader (BMG Labtech). IC50 determination was performed by fitting the curve of percent control activity versus the log of the inhibitor concentration using the GraphPad Prism 5.0 software.

C-myc = test: KMS.12.BM C-myc ELISA assay; format: cell-based; details: Homo sapiens; KMS.12.BM cells, 2 hours, concentration required for 50% C-myc inhibition
Procedure: KMS.12.BM cell line (human myeloma) was purchased from JCRB (Osaka, Japan) and maintained in RPMI with 10% FBS culture medium. To measure the C-myc inhibitory activity of the compounds, the KMS.12.BM cells are plated in the RPMI culture medium at 75000 cells/well/per 200 μL into a 96-well flat bottom polystyrene tissue culture plate (Corning through VWR, NJ), in the presence or absence of a concentration range of test compounds. After 2 hours, cell are pelleted and lysed with Cell Extraction Buffer (BioSource, Carlsbad, Calif.) in the presence of protease inhibitors (Life Technologies, Grand Island, N.Y. and Sigma, St Louis, Mo.). Clarified lyses are tested in a C-myc commercial ELISA (Life Technologies, Grand Island, N.Y.). Compound inhibition is determined relative to cells cultured with no drug and the IC50 is reported as the compound concentration required for 50% C-myc inhibition. IC50 data for the Examples is presented in Table 10 as determined by Assay C1.

BRD4-BD1 = BRD4-BD1 (Homo sapiens (Human), UniProt O60885); test: BRD4 AlphaScreen assay, BRD4-BD1; format: binding; details: H4Ac4 peptide, 75 min, room temperature, read-out: BRD4 BD-1 enzyme IC50
Procedure: as §1

Compound	IC50 (KMS.12.BM cells) [µM]	IC50 (BRD4-BD2) [µM]	IC50 (C-myc) [µM]	IC50 (BRD4-BD1) [µM]
Cn1cc(-c2ccc3[nH]c(=O)[nH]c3c2Oc2ccc(F)cc2F)c2cn[nH]c2c1=O [Example 16, 4-[4-(2,4-Difluorophenoxy)-2-oxo-2,3-dihydro-1H-benzimidazol-5-yl]-6-methyl-1,6-dihydro-7H-pyrazolo[3,4-c]pyridin-7-one]	≤ 1	< 0.1	≤ 1	< 0.1
Cn1cc(-c2ccc3c(ncn3CCN3CCOCC3)c2Oc2ccc(F)cc2F)c2cn[nH]c2c1=O [Example 17, 4-[4-(2,4-Difluorophenoxy)-1-(2-morpholin-4-ylethyl)-1H-benzimidazol-5-yl]-6-methyl-1,6-dihydro-7H-pyrazolo[3,4-c]pyridin-7-one]	≤ 1	< 0.1	≤ 1	< 0.1
Cn1cc(-c2ccc3c(ncn3C)c2Oc2ccc(F)cc2F)c2cn[nH]c2c1=O [Example 18, 4-[4-(2,4-Difluorophenoxy)-1-methyl-1H-benzimidazol-5-yl]-6-methyl-1,6-dihydro-7H-pyrazolo[3,4-c]pyridin-7-one]	≤ 1	< 0.1	≤ 1	< 0.1
Cc1nc2c(Oc3ccc(F)cc3F)c(-c3cn(C)c(=O)c4[nH]ncc34)ccc2n1C [Example 19, 4-[4-(2,4-Difluorophenoxy)-1,2-dimethyl-1H-benzimidazol-5-yl]-6-methyl-1,6-dihydro-7H-pyrazolo[3,4-c]pyridin-7-one]	≤ 1	< 0.1	≤ 1	< 0.1
Cn1cc(-c2ccc3c(nnn3C)c2Oc2ccc(F)cc2F)c2cn[nH]c2c1=O [Example 20, 4-[4-(2,4-Difluorophenoxy)-1-methyl-1H-1,2,3-benzotriazol-5-yl]-6-methyl-1,6-dihydro-7H-pyrazolo[3,4-c]pyridin-7-one]	≤ 1	< 0.1	≤ 1	< 0.1
Cn1cc(-c2ccc3c([nH]c(=O)n3C)c2Oc2ccc(F)cc2F)c2cn[nH]c2c1=O [Example 21, 4-[4-(2,4-Difluorophenoxy)-1-methyl-2-oxo-2,3-dihydro-1H-benzimidazol-5-yl]-6-methyl-1,6-dihydro-7H-pyrazolo[3,4-c]pyridin-7-one]	≤ 1	< 0.1	≤ 1	< 0.1
Cn1cc(-c2ccc3[nH]c(=O)[nH]c3c2Oc2ccccc2)c2cc[nH]c2c1=O [Example 22, 5-(6-Methyl-7-oxo-6,7-dihydro-1H-pyrrolo[2,3-c]pyridin-4-yl)-4-phenoxy-1,3-dihydro-2H-benzimidazol-2-one]	≤ 1	< 0.1	≤ 1	< 0.1
Cn1cc(-c2ccc3[nH]c(=O)[nH]c3c2Oc2ccc(F)cc2)c2cc[nH]c2c1=O [Example 24, 4-(4-Fluorophenoxy)-5-(6-methyl-7-oxo-6,7-dihydro-1H-pyrrolo[2,3-c]pyridin-4-yl)-1,3-dihydro-2H-benzimidazol-2-one]	≤ 1	< 0.1	≤ 1	< 0.1
Cn1cc(-c2ccc3[nH]c(=O)[nH]c3c2Oc2cccc(F)c2)c2cc[nH]c2c1=O [Example 25, 4-(3-Fluorophenoxy)-5-(6-methyl-7-oxo-6,7-dihydro-1H-pyrrolo[2,3-c]pyridin-4-yl)-1,3-dihydro-2H-benzimidazol-2-one]	≤ 1	< 0.1	≤ 1	< 0.1
Cn1cc(-c2ccc3[nH]c(=O)[nH]c3c2OC2CCCOC2)c2cc[nH]c2c1=O (centres unmarked) [Example 26, 5-(6-Methyl-7-oxo-6,7-dihydro-1H-pyrrolo[2,3-c]pyridin-4-yl)-4-(tetrahydro-2H-pyran-3-yloxy)-1,3-dihydro-2H-benzimidazol-2-one]	≤ 1	< 0.1	≤ 1	< 0.1
Cn1cc(-c2ccc3c([nH]c(=O)n3C)c2OCc2ccccc2)c2cc[nH]c2c1=O [Example 27, 4-(Benzyloxy)-1-methyl-5-(6-methyl-7-oxo-6,7-dihydro-1H-pyrrolo[2,3-c]pyridin-4-yl)-1,3-dihydro-2H-benzimidazol-2-one]	≤ 1	< 0.1	≤ 1	0.1 to 1
Cn1cc(-c2ccc3c([nH]c(=O)n3C)c2OCc2ccc(F)cc2F)c2cc[nH]c2c1=O [Example 28, 4-[(2,4-Difluorobenzyl)oxy]-1-methyl-5-(6-methyl-7-oxo-6,7-dihydro-1H-pyrrolo[2,3-c]pyridin-4-yl)-1,3-dihydro-2H-benzimidazol-2-one]	≤ 1	< 0.1	1 to 10	0.1 to 1
Cn1cc(-c2ccc3c([nH]c(=O)n3C)c2OC2CCOCC2)c2cc[nH]c2c1=O [Example 29, 1-Methyl-5-(6-methyl-7-oxo-6,7-dihydro-1H-pyrrolo[2,3-c]pyridin-4-yl)-4-(tetrahydro-2H-pyran-4-yloxy)-1,3-dihydro-2H-benzimidazol-2-one]	≤ 1	< 0.1	≤ 1	< 0.1
Cn1cc(-c2ccc3ncn(CC(=O)N4CCOCC4)c3c2Oc2ccc(F)cc2F)c2cc[nH]c2c1=O [Example 30, 4-[7-(2,4-Difluorophenoxy)-1-(2-morpholin-4-yl-2-oxoethyl)-1H-benzimidazol-6-yl]-6-methyl-1,6-dihydro-7H-pyrrolo[2,3-c]pyridin-7-one]	≤ 1	< 0.1	≤ 1	< 0.1
Cn1cc(-c2ccc3c(ncn3CC(=O)N3CCOCC3)c2Oc2ccc(F)cc2F)c2cc[nH]c2c1=O [Example 31, 4-[4-(2,4-difluorophenoxy)-1-(2-morpholin-4-yl-2-oxoethyl)-1H-benzimidazol-5-yl]-6-methyl-1,6-dihydro-7H-pyrrolo[2,3-c]pyridin-7-one]	≤ 1	< 0.1	≤ 1	< 0.1
COc1c(-c2cn(C)c(=O)c3[nH]ccc23)ccc2c1[nH]c(=O)n2C [Example 32, 4-Methoxy-1-methyl-5-(6-methyl-7-oxo-6,7-dihydro-1H-pyrrolo[2,3-c]pyridin-4-yl)-1,3-dihydro-2H-benzimidazol-2-one]	≤ 1	< 0.1	≤ 1	0.1 to 1
CN(C)C(=O)Cn1cnc2c(Oc3ccc(F)cc3F)c(-c3cn(C)c(=O)c4[nH]ccc34)ccc21 [Example 34, 2-[4-(2,4-difluorophenoxy)-5-(6-methyl-7-oxo-6,7-dihydro-1H-pyrrolo[2,3-c]pyridin-4-yl)-1H-benzimidazol-1-yl]-N,N-dimethylacetamide]	≤ 1	< 0.1	≤ 1	< 0.1
CNC(=O)Cn1cnc2c(Oc3ccc(F)cc3F)c(-c3cn(C)c(=O)c4[nH]ccc34)ccc21 [Example 36, 2-[4-(2,4-difluorophenoxy)-5-(6-methyl-7-oxo-6,7-dihydro-1H-pyrrolo[2,3-c]pyridin-4-yl)-1H-benzimidazol-1-yl]-N-methylacetamide]	≤ 1	< 0.1	≤ 1	< 0.1
Cn1cc(-c2ccc3c([nH]c(=O)n3C)c2OCC2CCC2)c2cc[nH]c2c1=O [Example 37, 4-(Cyclobutylmethoxy)-1-methyl-5-(6-methyl-7-oxo-6,7-dihydro-1H-pyrrolo[2,3-c]pyridin-4-yl)-1,3-dihydro-2H-benzimidazol-2-one]	≤ 1	< 0.1	≤ 1	< 0.1
Cn1cc(-c2ccc3c([nH]c(=O)n3C)c2Oc2ccccc2)c2cc[nH]c2c1=O [Example 38, 1-Methyl-5-(6-methyl-7-oxo-6,7-dihydro-1H-pyrrolo[2,3-c]pyridin-4-yl)-4-phenoxy-1,3-dihydro-2H-benzimidazol-2-one]	≤ 1	< 0.1	≤ 1	< 0.1

Reference: patent US9918990B2, “Substituted pyrrolo[2,3-c]pyridines and pyrazolo[3,4-c]pyridines as BET protein inhibitors” (Incyte Corporation, priority 2013, dated 2018)
